Test system: mdx mouse EDL muscle
Assay: Phosphoprotein array analysis (Cell Signaling Phospho Antibody Array)
Protocol: mdx mouse EDL muscle was prepared for ex vivo analysis as described (n = 5). Muscles were incubated for 1 hour with DMSO or EDG-5506 (5 μM) and then flash frozen in liquid nitrogen. Tissue preparation and analysis were performed as recommended by the manufacturer (Cell Signaling Phospho Antibody Array, Full Moon Biosystems).

O=c1ccc(-c2cnc(OCC(F)(F)F)nc2)nn1Cc1cncc(F)c1 [EDG-5506]
Data Normalized to Median Signal: BAX (Phospho-Thr167): 0.77
Fold Change T/C: 4E-BP1 (Ab-45) (5 μM, 1 hour): 0.88
Fold Change T/C: 4E-BP1 (Phospho-Thr45) (5 μM, 1 hour): 0.74
Fold Change T/C: 14-3-3 theta/tau (Phospho-Ser232) (5 μM, 1 hour): 1.01
Fold Change T/C: 14-3-3 zeta/delta (Ab-232) (5 μM, 1 hour): 1.03
Fold Change T/C: ACC1 (Ab-80) (5 μM, 1 hour): 0.96
Fold Change T/C: ACC1 (Phospho-Ser80) (5 μM, 1 hour): 0.92
Fold Change T/C: AKT (5 μM, 1 hour): 0.96
Fold Change T/C: AKT1 (Ab-308) (5 μM, 1 hour): 1.11
Fold Change T/C: AKT1S1 (Ab-246) (5 μM, 1 hour): 1.04
Fold Change T/C: AMPKbeta1 (Ab-182) (5 μM, 1 hour): 0.89
Fold Change T/C: AMPKbeta1 (Phospho-Ser182) (5 μM, 1 hour): 0.80
Fold Change T/C: ASK1 (Ab-966) (5 μM, 1 hour): 0.99
Fold Change T/C: ATF2 (Ab-62/44) (5 μM, 1 hour): 2.53
Fold Change T/C: Actin Pan(a/b/g) (Ab-55/53) (5 μM, 1 hour): 0.97
Fold Change T/C: B-RAF (Ab-598) (5 μM, 1 hour): 1.09
Fold Change T/C: B-RAF (Phospho-Ser446) (5 μM, 1 hour): 1.05
Fold Change T/C: BAX (Phospho-Thr167) (5 μM, 1 hour): 0.78
Fold Change T/C: BCL-XL (Ab-47) (5 μM, 1 hour): 1.77
Fold Change T/C: BCL-XL (Phospho-Ser62) (5 μM, 1 hour): 1.02
Fold Change T/C: BID (Ab-78) (5 μM, 1 hour): 1.23
Fold Change T/C: BLNK (Ab-96) (5 μM, 1 hour): 0.97
Fold Change T/C: BLNK (Phospho-Tyr96) (5 μM, 1 hour): 0.51
Fold Change T/C: BRCA1 (Ab-1524) (5 μM, 1 hour): 1.39
Fold Change T/C: Bax (5 μM, 1 hour): 0.89
Fold Change T/C: Beclin-1 (5 μM, 1 hour): 1.49
Fold Change T/C: Beta actin (5 μM, 1 hour): 0.82
Fold Change T/C: CBL (Phospho-Tyr700) (5 μM, 1 hour): 0.88
Fold Change T/C: CDC25C (Ab-216) (5 μM, 1 hour): 1.97
Fold Change T/C: CDK1/CDC2 (Phospho-Tyr15) (5 μM, 1 hour): 0.83
Fold Change T/C: CREB (Ab-133) (5 μM, 1 hour): 0.71
Fold Change T/C: CREB (Phospho-Ser133) (5 μM, 1 hour): 0.74
Fold Change T/C: CaMK2-beta/gamma/delta (Ab-287) (5 μM, 1 hour): 1.42
Fold Change T/C: CaMK2-beta/gamma/delta (Phospho-Thr287) (5 μM, 1 hour): 0.92
Fold Change T/C: CaMK2A (Phospho-Thr286) (5 μM, 1 hour): 0.86
Fold Change T/C: Calmodulin (Ab-79/81) (5 μM, 1 hour): 1.02
Fold Change T/C: Caspase 8 (Phospho-Ser347) (5 μM, 1 hour): 1.08
Fold Change T/C: Caspase 9 (Ab-196) (5 μM, 1 hour): 2.31
Fold Change T/C: Caspase 9 (Phospho-Ser196) (5 μM, 1 hour): 0.94
Fold Change T/C: Catalase (Ab-385) (5 μM, 1 hour): 1.34
Fold Change T/C: Catenin beta (Ab-37) (5 μM, 1 hour): 1.21
Fold Change T/C: Catenin beta (Phospho-Thr41/Ser45) (5 μM, 1 hour): 0.83
Fold Change T/C: Chk2 (Ab-68) (5 μM, 1 hour): 1.17
Fold Change T/C: Chk2 (Phospho-Thr68) (5 μM, 1 hour): 0.51
Fold Change T/C: CrkII (Ab-221) (5 μM, 1 hour): 1.59
Fold Change T/C: Cyclin D1 (Ab-286) (5 μM, 1 hour): 1.10
Fold Change T/C: Cyclin D1 (Phospho-Thr286) (5 μM, 1 hour): 1.18
Fold Change T/C: Cyclin E1 (Ab-77) (5 μM, 1 hour): 1.24
Fold Change T/C: Cyclin E1 (Phospho-Thr77) (5 μM, 1 hour): 1.02
Fold Change T/C: DARPP-32 (Ab-34) (5 μM, 1 hour): 1.01
Fold Change T/C: DARPP-32 (Phospho-Thr34) (5 μM, 1 hour): 0.91
Fold Change T/C: EEF2 (Ab-56) (5 μM, 1 hour): 0.84
Fold Change T/C: EEF2 (Phospho-Thr56) (5 μM, 1 hour): 1.12
Fold Change T/C: EGFR (Ab-1172) (5 μM, 1 hour): 0.86
Fold Change T/C: Elk1 (Ab-389) (5 μM, 1 hour): 1.22
Fold Change T/C: FADD (Phospho-Ser194) (5 μM, 1 hour): 1.53
Fold Change T/C: FAK (Ab-910) (5 μM, 1 hour): 1.76
Fold Change T/C: FAK (Phospho-Ser910) (5 μM, 1 hour): 1.09
Fold Change T/C: FGFR1 (Phospho-Tyr654) (5 μM, 1 hour): 1.35
Fold Change T/C: FKHRL1/FOXO3A (Ab-253) (5 μM, 1 hour): 1.74
Fold Change T/C: FOXO1/3/4-pan (Ab-24/32) (5 μM, 1 hour): 1.40
Fold Change T/C: GAPDH (5 μM, 1 hour): 0.75
Fold Change T/C: GRK2 (Ab-29) (5 μM, 1 hour): 1.92
Fold Change T/C: GRK2 (Phospho-Ser29) (5 μM, 1 hour): 1.26
Fold Change T/C: GSK3 alpha/beta (Phospho-Tyr216/279) (5 μM, 1 hour): 0.97
Fold Change T/C: GSK3 beta (5 μM, 1 hour): 1.12
Fold Change T/C: Gab1 (Ab-627) (5 μM, 1 hour): 1.06
Fold Change T/C: Gab2 (Phospho-Tyr643) (5 μM, 1 hour): 1.59
Fold Change T/C: HDAC1 (Ab-421) (5 μM, 1 hour): 0.79
Fold Change T/C: HDAC1 (Phospho-Ser421) (5 μM, 1 hour): 1.25
Fold Change T/C: HDAC2 (Ab-394) (5 μM, 1 hour): 1.03
Fold Change T/C: HDAC2 (Phospho-Ser394) (5 μM, 1 hour): 0.90
Fold Change T/C: HER2 (Ab-1221/1222) (5 μM, 1 hour): 1.19
Fold Change T/C: HSP27 (Ab-82) (5 μM, 1 hour): 0.82
Fold Change T/C: HSP90B (Phospho-Ser226) (5 μM, 1 hour): 1.00
Fold Change T/C: IKK alpha/beta (Ab-180/181) (5 μM, 1 hour): 0.91
Fold Change T/C: IKK-beta (Ab-199) (5 μM, 1 hour): 1.62
Fold Change T/C: IKK-beta (Phospho-Tyr188) (5 μM, 1 hour): 1.01
Fold Change T/C: IKK-beta (Phospho-Tyr199) (5 μM, 1 hour): 0.84
Fold Change T/C: IKK-gamma (Ab-31) (5 μM, 1 hour): 0.96
Fold Change T/C: IKK-gamma (Phospho-Ser31) (5 μM, 1 hour): 0.98
Fold Change T/C: IL-4R/CD124 (Ab-497) (5 μM, 1 hour): 0.93
Fold Change T/C: IL-4R/CD124 (Phospho-Tyr497) (5 μM, 1 hour): 0.93
Fold Change T/C: IL-10R-alpha (Ab-496) (5 μM, 1 hour): 1.30
Fold Change T/C: IL-10R-alpha (Phospho-Tyr496) (5 μM, 1 hour): 0.85
Fold Change T/C: IRS-1 (Ab-312) (5 μM, 1 hour): 1.03
Fold Change T/C: IkB-alpha (Phospho-Ser32/36) (5 μM, 1 hour): 1.11
Fold Change T/C: IkB-epsilon (Ab-22) (5 μM, 1 hour): 1.30
Fold Change T/C: Integrin beta-3 (Ab-773) (5 μM, 1 hour): 1.08
Fold Change T/C: Integrin beta-3 (Phospho-Tyr773) (5 μM, 1 hour): 0.93
Fold Change T/C: Interferon-alpha/beta receptor alpha chain (Ab-466) (5 μM, 1 hour): 0.90
Fold Change T/C: JAK2 (Ab-1007) (5 μM, 1 hour): 1.36
Fold Change T/C: JunB (Phospho-Ser259) (5 μM, 1 hour): 0.79
Fold Change T/C: LCK (Ab-393) (5 μM, 1 hour): 1.67
Fold Change T/C: LKB1 (Ab-334) (5 μM, 1 hour): 0.94
Fold Change T/C: LYN (Ab-507) (5 μM, 1 hour): 0.58
Fold Change T/C: LYN (Phospho-Tyr507) (5 μM, 1 hour): 1.06
Fold Change T/C: Lamin A/C (Ab-392) (5 μM, 1 hour): 1.84
Fold Change T/C: Lamin A/C (Phospho-Ser392) (5 μM, 1 hour): 0.80
Fold Change T/C: MDM2 (Ab-166) (5 μM, 1 hour): 1.49
Fold Change T/C: MEK1 (Ab-291) (5 μM, 1 hour): 0.77
Fold Change T/C: MEK1 (Phospho-Ser217) (5 μM, 1 hour): 0.62
Fold Change T/C: MITF (Ab-73) (5 μM, 1 hour): 1.38
Fold Change T/C: MKK4/SEK1 (Ab-80) (5 μM, 1 hour): 1.10
Fold Change T/C: MSK1 (Ab-360) (5 μM, 1 hour): 0.69
Fold Change T/C: Myc (Ab-58) (5 μM, 1 hour): 1.09
Fold Change T/C: NFkB-p65 (Ab-529) (5 μM, 1 hour): 1.14
Fold Change T/C: NFkB-p65 (Phospho-Ser311) (5 μM, 1 hour): 1.00
Fold Change T/C: NFkB-p65 (Phospho-Ser529) (5 μM, 1 hour): 0.82
Fold Change T/C: NFkB-p100/p52 (Ab-865) (5 μM, 1 hour): 0.76
Fold Change T/C: NFkB-p100/p52 (Phospho-Ser865) (5 μM, 1 hour): 0.88
Fold Change T/C: NFkB-p105/p50 (Ab-927) (5 μM, 1 hour): 0.85
Fold Change T/C: P38 MAPK (Ab-182) (5 μM, 1 hour): 1.70
Fold Change T/C: P38 MAPK (Phospho-Thr180/Tyr182) (5 μM, 1 hour): 0.35
Fold Change T/C: P70S6K (Ab-229) (5 μM, 1 hour): 1.33
Fold Change T/C: P70S6K (Phospho-Ser424) (5 μM, 1 hour): 1.00
Fold Change T/C: P90RSK (Ab-359/363) (5 μM, 1 hour): 1.06
Fold Change T/C: P90RSK (Phospho-Thr359/Ser363) (5 μM, 1 hour): 0.95
Fold Change T/C: PDK1 (Ab-241) (5 μM, 1 hour): 1.24
Fold Change T/C: PDK1 (Phospho-Ser241) (5 μM, 1 hour): 1.14
Fold Change T/C: PLCG1 (Phospho-Tyr783) (5 μM, 1 hour): 2.25
Fold Change T/C: PLK1 (Ab-210) (5 μM, 1 hour): 1.49
Fold Change T/C: PLK1 (Phospho-Thr210) (5 μM, 1 hour): 0.60
Fold Change T/C: PP1 alpha (Ab-320) (5 μM, 1 hour): 1.15
Fold Change T/C: PP2A-alpha (Ab-307) (5 μM, 1 hour): 1.23
Fold Change T/C: PP2A-alpha (Phospho-Tyr307) (5 μM, 1 hour): 0.93

Source: PMC10178848, “Modulating fast skeletal muscle contraction protects skeletal muscle in animal models of Duchenne muscular dystrophy” (The Journal of Clinical Investigation, 2023)
